# Results published in PMC9413508, “PI3K/mTOR Dual Inhibitor Pictilisib Stably Binds to Site I of Human Serum Albumin as Observed by Computer Simulation, Multispectroscopic, and Microscopic Studies” (Molecules, 2022).
# Molecular target: T1, human serum albumin (HSA) (Homo sapiens, UniProt P02768)
# T1 construct: gene ALB; fatty-acid-free HSA, commercial (Sigma-Aldrich); mature protein, 585 residues, monomer
# Test: intrinsic Trp fluorescence quenching, double-log plot
# Type: binding
# Details: 298 K, pH 7.4 PBS 10 mM, HSA 2 μM; λex 280 nm; n = 1.14; site I (subdomain IIA)
# Procedure: intrinsic Trp fluorescence quenching, double-log plot on human serum albumin (HSA) | the association constant (Ka) between GDC-0941 and HSA was calculated
# T1 sequence (P02768 25-609): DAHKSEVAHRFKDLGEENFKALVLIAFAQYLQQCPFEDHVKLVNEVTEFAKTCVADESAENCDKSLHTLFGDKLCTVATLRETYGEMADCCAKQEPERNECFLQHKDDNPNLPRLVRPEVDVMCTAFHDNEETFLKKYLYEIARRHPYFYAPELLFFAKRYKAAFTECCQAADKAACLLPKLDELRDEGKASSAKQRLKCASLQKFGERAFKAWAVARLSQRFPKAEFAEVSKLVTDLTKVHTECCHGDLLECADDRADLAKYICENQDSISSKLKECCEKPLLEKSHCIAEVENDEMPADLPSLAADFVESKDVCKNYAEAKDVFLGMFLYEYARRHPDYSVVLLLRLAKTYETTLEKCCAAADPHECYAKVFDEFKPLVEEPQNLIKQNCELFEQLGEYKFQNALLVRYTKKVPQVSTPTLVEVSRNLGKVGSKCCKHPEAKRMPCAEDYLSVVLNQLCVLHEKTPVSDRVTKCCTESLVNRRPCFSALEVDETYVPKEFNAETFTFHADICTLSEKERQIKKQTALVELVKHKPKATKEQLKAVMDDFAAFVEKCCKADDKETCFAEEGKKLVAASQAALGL
smiles,measurement,value
CS(=O)(=O)N1CCN(Cc2cc3nc(-c4cccc5[nH]ncc45)nc(N4CCOCC4)c3s2)CC1 [GDC-0941],Ka (×10^5 M^-1),4.09 ×10^5 M^−1
